Consider 68 molecules from PubChem BioAssay AID1902 (Broad Institute, 2009).

Active and inactive are the calls of the source.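 How the source made its calls: active means EC50 no more than a set limit of log units above the highest dose; inactive means the rest.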 Some results are limits rather than exact numbers.

One may read the EC50 as the concentration needed to bring the measured effect to its halfway point.

In this test the target is S. pyogenes SKKanGAS, kanamycin survival, BacTiterGlo, 6 h. Briefly: S. pyogenes SKKanGAS kanamycin growth inhibitors – SKKanGAS strain, luminescence, dose confirmation, streptokinase promoter inhibitor project, dose response (AID 1902).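 Further: lower survival reflects blocked streptokinase promoter driving kanamycin resistance gene.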
With `Cc1cccc(CSc2nc(N)c(C#N)c(-c3cccs3)c2C#N)c1`, the half-maximal effective concentration (EC50) was 4.77 µM.

As for `O=C(NNC(=S)NC(=O)c1cccs1)c1ccc(NC(=O)c2ccccc2)cc1`, the concentration giving a half-maximal response (EC50) is 0.556 µM.

As to `CCOC(=O)c1ccc(NC2=CC(=O)C(=O)c3ccccc32)cc1`, the EC50 was 3.48 µM.

With `O=c1cc(-c2ccccc2Cl)oc2ccc([N+](=O)[O-])c(O)c12`, the concentration giving a half-maximal response (EC50) was 3.25 µM.

Regarding `Cc1cccc(/C=C2\Sc3ccc(C(=O)N4CCC(C)CC4)cc3N(C)C2=O)c1`, the EC50 was 2.69 µM.

Consider `Cc1nc(Nc2cnc(/C=C/c3cc(C(=O)Nc4cccc(C(F)(F)F)c4)ccc3C)cn2)cc(N2CCNCC2)n1`, for which the concentration for a half-maximal effect (EC50) is 6.36 µM.

In the case of `N#CCC(=O)Nc1ccc(C(=O)OC(C(=O)Nc2cc(C(F)(F)F)ccc2Cl)c2ccccc2)cc1` (stereo not drawn), the EC50 was 3.64 µM.

Consider `COc1ccc2cc(C(=O)C3CCCN(Cc4cccc(C)n4)C3)ccc2c1` (stereo not drawn), for which the half-maximal effective concentration (EC50) is 1.84 µM.

In the case of `COc1cccc(N2C(N)=NC(N)=NC2(C)C)c1`, the EC50 is 0.318 µM.

For `Cc1cc(C)c(-c2cc(NC(=O)COC(=O)c3ccc(CO)cc3)n(-c3ccccc3)n2)cc1C`, the half-maximal effective concentration (EC50) was 8.32 µM.

With `CCc1cccc2sc(N3CCN(C(=O)c4ccc([N+](=O)[O-])o4)CC3)nc12`, the EC50 was 4.73 µM.

On to `Oc1c(Cl)cc(Cl)c2c1NCCC2`, for which the EC50 is 5.37 µM.

On to `O=C(N/N=C/c1ccc([N+](=O)[O-])o1)c1cc(-c2cccc(Br)c2)nc2ccccc12`, for which the concentration giving a half-maximal response (EC50) was 0.422 µM.

Regarding `CC(C)c1ccc(OCC(=O)NNC(=S)NC(=O)c2ccco2)c(Br)c1`, the half-maximal effective concentration (EC50) is under 0.06 µM.

With `CCOC(=O)c1cnc(-n2nc(C)cc2C)nc1NC1CCCC1`, the EC50 is 2.58 µM.

As to `CC(Oc1ccc(Cl)cc1Cl)c1nc(-c2ccc(NC(=O)c3ccco3)cc2)no1` (stereo not drawn), the EC50 was 5.82 µM.

Take `Nc1nc(Nc2cccc(Cl)c2)nc(NCc2ccco2)c1[N+](=O)[O-]`: the EC50 was 7.92 µM.

In the case of `C/C(N)=C(/C#N)C(=O)CSc1nc2scc(-c3ccc(F)cc3)c2c(=O)n1C`, the EC50 was 2.1 µM.

On to `CC1(C)S[C@@H]2[C@H](NC(=O)COc3ccccc3)C(=O)N2C1C(=O)OCC1CCCCC1` (stereo partly drawn), for which the EC50 is 8 µM.

For the molecule `C/C(=N\NC(=O)COc1ccccc1-c1ccccc1)c1ccccn1`, the 50% effective concentration (EC50) was 0.667 µM.

Take `O=C(NC(=S)N(Cc1ccccc1)Cc1ccccc1)c1ccccc1F`: the 50% effective concentration (EC50) was 0.752 µM.

For `COCc1cc(Sc2c(Cl)cccc2Cl)nc(-c2ccccc2)n1`, the EC50 is 10.5 µM.

As to `CC(C)CN1C(=S)SC(C)(C)C1n1oc(=O)n(-c2ccc(Cl)cc2)c1=O` (stereo not drawn), the concentration for a half-maximal effect (EC50) is 4.33 µM.

`CCc1ccc2c(c1)C1(NN=C(c3ccccc3)S1)C(=O)N2` (stereo not drawn): the concentration for a half-maximal effect (EC50) was 0.245 µM.

With `COc1cccc(-c2nc(NC3CCCC3)c3ccccc3n2)c1O`, the EC50 is 5.84 µM.

For `Oc1ccccc1N=Nc1ccccc1O`, the half-maximal effective concentration (EC50) is 0.961 µM.

As to `C=C(C)COc1ccc(-c2n[nH]c(C)c2-c2ccccc2)c(O)c1`, the EC50 was 2.4 µM.

With `Cc1cc(C)cc(C(=O)NC2C(=O)N3C(C(=O)O)=C(CSc4nnc(C)s4)CSC23)c1` (stereo not drawn), the concentration for a half-maximal effect (EC50) was 0.38 µM.

As to `O=C(Nc1cccc(Cl)c1N1CCCC1)c1cc2ccccc2o1`, the EC50 is 4.81 µM.

For `Brc1ccc(Nc2ncnc3[nH]ncc23)cc1`, the EC50 is 8.45 µM.

Consider `Oc1nc(Nc2ccccc2)sc1/C=C1\C=Nc2ccccc21`, for which the EC50 is 9.16 µM.

Turning to `O=C(CCN1C(=O)/C(=C/c2ccccc2Cl)SC1=S)NNC(=O)c1ccccc1O`, the EC50 is 3.35 µM.

`COCC1CCN(C(=O)c2ccc3oc(Cc4ccccc4)nc3c2)C1` (stereo not drawn): the EC50 was > 15 µM (inactive).

With `C(=N\Nc1ncnc2sc3c(c12)CCC3)/c1cccs1`, the EC50 is 10.2 µM.

Consider `CN(C)c1ccc(/C=C/c2ccc3ccccc3[n+]2C)cc1`, for which the EC50 is 7.2 µM.

As to `CNC(=S)N/N=C/c1cn(Cc2ccc(C)cc2)c2ccccc12`, the concentration giving a half-maximal response (EC50) is 5.33 µM.

Consider `CC(C)(C)c1ccc2c(c1)OC(C(=O)N/N=C/c1ccc([N+](=O)[O-])o1)CO2` (stereo not drawn), for which the EC50 was 3.92 µM.

For the molecule `CCOC(=O)/C(=N/Nc1ccccc1)c1csc(Nc2ccccc2)n1`, the EC50 was 3.22 µM.

Consider `O=c1[nH]c(CSc2ncnc3sccc23)nc2ccccc12`, for which the EC50 was 2.25 µM.

For the molecule `COc1ccc(C(=O)OCC(=O)Nc2nnc(-c3ccccc3)o2)cc1`, the concentration giving a half-maximal response (EC50) was 6.54 µM.

`CCCCn1c(CCCNC(=O)c2ccco2)nc2ccccc21`: the EC50 was > 15 µM (inactive).

On to `C[C@@]12CCC=C[C@H]1[C@H](c1ccc3ccccc3c1Br)N(Cc1ccccc1)C2=O`, for which the EC50 was 3.63 µM.

On to `O[C@@H]1CCCN2CCc3c([nH]c4ccccc34)[C@H]12`, for which the EC50 is > 15 µM (inactive).

On to `O=c1[nH]c(CN2CC=C(c3ccccc3)CC2)nc2scc(-c3ccccc3)c12`, for which the concentration giving a half-maximal response (EC50) was 3.17 µM.

Turning to `Cn1c(SCC(=O)NC2(C#N)CCCCC2)nnc1-c1cccnc1`, the EC50 is > 15 µM (inactive).

On to `CCCCCn1c(=O)c(C(=O)Nc2cnccn2)c(O)c2ccccc21`, for which the EC50 is 3.18 µM.

In the case of `CC(C)CCn1c(=O)c(C(=O)N/N=C/c2cccc(F)c2)c(O)c2ccccc21`, the concentration for a half-maximal effect (EC50) is 1.17 µM.

`Nc1[nH]n2c(=O)cc(-c3ccccc3)nc2c1N=Nc1ccc2c(c1)OCO2`: the concentration for a half-maximal effect (EC50) is 2.25 µM.

Regarding `Cc1ccc(OCCn2c(=S)[nH]c3ccccc32)c(C(C)C)c1`, the half-maximal effective concentration (EC50) was 2.13 µM.

`CO/N=C(/C(=O)N[C@@H]1C(=O)N2C(C(=O)O)=CCS[C@H]12)c1cnc(N)s1`: the 50% effective concentration (EC50) was under 0.06 µM.

For the molecule `Cc1cc(-c2csc3nc[nH]c(=S)c23)cc(C)c1C`, the concentration for a half-maximal effect (EC50) is 1.67 µM.

As to `C=CCn1c(=O)c(C(=O)NCc2ccccc2)c(O)c2ccccc21`, the EC50 was 3.32 µM.

Turning to `FC(F)(F)c1cc(Nc2ccccc2)nc(-c2ccccn2)n1`, the 50% effective concentration (EC50) was 15.2 µM.

Take `COc1cccc(/C=N/Nc2nc(Nc3ccc([N+](=O)[O-])cc3)nc(N3CCCC3)n2)c1O`: the 50% effective concentration (EC50) was 1.18 µM.

For `Cc1cccc(C(=O)Nc2scc(-c3ccc(Br)cc3)c2C(=O)O)c1`, the concentration giving a half-maximal response (EC50) was 1.89 µM.

Regarding `Cc1nn(-c2ccccc2)c(Cl)c1/C=N/NC(=O)c1ccc(NS(=O)(=O)c2cccs2)cc1`, the EC50 is 2.34 µM.

On to `COCCCNC(=S)NNC(=S)Nc1cccc(Cl)c1`, for which the EC50 was > 15 µM (inactive).

On to `CC(NC(=O)Nc1nnc(C(F)(F)F)s1)(C(F)(F)F)C(F)(F)F`, for which the concentration giving a half-maximal response (EC50) was 2.97 µM.

As to `COc1cc(-c2c(C#N)c(N)nc3c2c(C)nn3-c2ccc(C)c(C)c2)cc(OC)c1OC`, the EC50 was 4.53 µM.

Consider `Oc1ccc(N=Nc2ccc3c(c2)OCCO3)c2cccnc12`, for which the EC50 is 0.257 µM.

On to `CN1c2ccccc2C(C)(C)C12C=Nc1c(ccc3ccccc13)O2` (stereo not drawn), for which the EC50 is 2.16 µM.

`CC(C)C[C@H](NC(=O)c1[nH]cnc1C(=O)N[C@@H](Cc1ccccc1)C(=O)OC(C)(C)C)C(=O)OC(C)(C)C`: the EC50 was 2.1 µM.

With `O=C(c1cc(-c2ccccc2)n[nH]1)N1CCc2c([nH]c3ccccc23)C1c1ccccn1` (stereo not drawn), the EC50 was 5.23 µM.

`O=C1C=C(N2CCCCC2)c2ccccc2C1=O`: the EC50 is 3.67 µM.

As for `Cc1cc(SCC(=O)N/N=C/c2ccc(O)c(O)c2O)c(C)cc1Br`, the EC50 is 3.11 µM.

As for `CS(=O)(=O)c1ccc([C@@H](O)[C@@H](CO)NC(=O)C(Cl)Cl)cc1`, the concentration for a half-maximal effect (EC50) was 0.74 µM.

As for `CC(=O)Oc1c(I)cc(I)cc1C(=O)Nc1ccc(Cl)cc1`, the concentration giving a half-maximal response (EC50) was 0.394 µM.

`COc1cc(/C=C/C(=O)c2ccc([N+](=O)[O-])o2)ccc1O`: the EC50 is 2.98 µM.
